Measured values published in PMC9856672, “SGC-CAMKK2-1: A Chemical Probe for CAMKK2” (Cells, 2023).
Like-named read-outs stand apart in the source and are kept apart here.

What was measured:
CAMKK1 = molecular target: T1, CAMKK1 (Homo sapiens, UniProt Q8N5S9); experiment: DiscoverX KINOMEscan binding assay at 1 μM, CAMKK1
T1 construct: purchased Eurofins DiscoverX KINOMEscan
Procedure: (§1) Compounds were screened at Eurofins DiscoverX (Freemont, CA) at a single concentration of 1 μM using binding assays as described previously. Briefly, extracts containing DNA-tagged kinases are incubated with immobilized kinase inhibitors and the test compound (at 1 μM). Test compounds that displace the immobilized broad-spectrum inhibitors are detected by quantitative PCR. The results are expressed as the percentage of kinase bound to the bead compared to DMSO control (%control). […] The formula to calculate S10 depicted in Equation (1). (1) S10(1 μM)=number of wild type kinase with % control ≤10/number of wild type kinase tested
(§2) A series of furo [2,3-b]pyridines were generated with modifications off the core at the 3- and 5-positions. They were profiled in the CAMKK2 enzyme assay we have described and utilized previously. Briefly, the enzyme assay measures the ability of the compound to inhibit the transfer of a radiolabeled phosphate from ATP to a CAMKK2-specific peptide. […] 5 was then profiled in the DiscoverX KINOMEscan™ assay panel to provide a view of the overall kinome-wide selectivity (Supplemental S2). This assay platform evaluates compound affinity for a panel of more than 400 wild-type human kinases. The S10 (1 µM), a calculated score that is reflective of broad kinome selectivity, is 0.002 for the probe molecule.

MYO3B = molecular target: T2, MYO3B (Homo sapiens, UniProt Q8WXR4); experiment: DiscoverX KINOMEscan binding assay at 1 μM, MYO3B
T2 construct: purchased Eurofins DiscoverX KINOMEscan
T2 sequence (Q8WXR4 1-1341): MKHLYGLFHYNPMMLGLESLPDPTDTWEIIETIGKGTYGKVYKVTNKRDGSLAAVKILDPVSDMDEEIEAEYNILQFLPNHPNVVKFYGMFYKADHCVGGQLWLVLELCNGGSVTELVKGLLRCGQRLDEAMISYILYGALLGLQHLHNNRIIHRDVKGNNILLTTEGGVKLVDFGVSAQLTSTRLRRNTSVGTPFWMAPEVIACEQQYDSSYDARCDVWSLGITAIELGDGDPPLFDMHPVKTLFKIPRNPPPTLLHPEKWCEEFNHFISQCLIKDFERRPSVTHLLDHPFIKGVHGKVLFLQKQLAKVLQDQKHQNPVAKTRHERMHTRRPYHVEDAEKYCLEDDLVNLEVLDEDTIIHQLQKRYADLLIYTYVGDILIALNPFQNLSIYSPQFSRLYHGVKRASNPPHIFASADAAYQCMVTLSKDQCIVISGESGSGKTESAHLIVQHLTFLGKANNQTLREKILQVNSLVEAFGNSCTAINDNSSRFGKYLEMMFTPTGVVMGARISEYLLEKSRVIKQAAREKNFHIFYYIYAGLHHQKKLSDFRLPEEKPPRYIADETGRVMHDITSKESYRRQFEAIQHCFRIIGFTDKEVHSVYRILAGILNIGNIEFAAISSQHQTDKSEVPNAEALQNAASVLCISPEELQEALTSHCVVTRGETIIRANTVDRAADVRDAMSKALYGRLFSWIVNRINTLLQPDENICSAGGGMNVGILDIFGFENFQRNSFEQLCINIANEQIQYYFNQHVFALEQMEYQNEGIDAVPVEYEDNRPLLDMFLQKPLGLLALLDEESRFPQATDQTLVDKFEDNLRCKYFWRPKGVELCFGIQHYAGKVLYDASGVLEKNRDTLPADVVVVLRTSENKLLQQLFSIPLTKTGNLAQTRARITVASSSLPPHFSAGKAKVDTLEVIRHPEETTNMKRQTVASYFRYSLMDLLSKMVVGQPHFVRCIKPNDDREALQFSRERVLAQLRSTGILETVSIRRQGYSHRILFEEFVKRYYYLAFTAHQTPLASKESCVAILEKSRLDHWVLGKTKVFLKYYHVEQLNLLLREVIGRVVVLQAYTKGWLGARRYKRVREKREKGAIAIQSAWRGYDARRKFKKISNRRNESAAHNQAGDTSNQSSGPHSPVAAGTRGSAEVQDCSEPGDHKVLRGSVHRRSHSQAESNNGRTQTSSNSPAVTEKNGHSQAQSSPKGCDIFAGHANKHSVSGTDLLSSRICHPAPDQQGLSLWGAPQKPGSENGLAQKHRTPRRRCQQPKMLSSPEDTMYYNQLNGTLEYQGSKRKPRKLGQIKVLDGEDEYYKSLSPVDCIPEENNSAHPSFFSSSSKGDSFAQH
Procedure: as §1, §2

CAMKK2 = CAMKK2 (Homo sapiens, UniProt Q96RR4); experiment: DiscoverX KINOMEscan binding assay at 1 μM, CAMKK2; design: purchased Eurofins DiscoverX KINOMEscan
Chain of CAMKK2 (Q96RR4 whole entry): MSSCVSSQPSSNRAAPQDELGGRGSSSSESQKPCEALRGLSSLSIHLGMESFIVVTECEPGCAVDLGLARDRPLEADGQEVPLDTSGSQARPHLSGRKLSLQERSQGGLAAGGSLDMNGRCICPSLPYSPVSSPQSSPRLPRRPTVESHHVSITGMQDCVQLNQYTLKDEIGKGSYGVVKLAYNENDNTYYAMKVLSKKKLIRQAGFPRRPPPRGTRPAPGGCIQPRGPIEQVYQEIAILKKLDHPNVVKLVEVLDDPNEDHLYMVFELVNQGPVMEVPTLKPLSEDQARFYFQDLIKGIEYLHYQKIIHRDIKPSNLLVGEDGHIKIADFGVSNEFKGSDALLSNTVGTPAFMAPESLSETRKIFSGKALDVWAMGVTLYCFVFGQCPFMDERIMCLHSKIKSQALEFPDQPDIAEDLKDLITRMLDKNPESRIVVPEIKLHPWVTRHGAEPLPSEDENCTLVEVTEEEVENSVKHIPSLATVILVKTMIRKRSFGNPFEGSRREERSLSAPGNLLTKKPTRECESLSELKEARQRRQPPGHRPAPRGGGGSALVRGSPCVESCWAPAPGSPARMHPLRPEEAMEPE
Procedure: as §1, §2

PIP4K2C = molecular target: T3, PIP4K2C (Homo sapiens, UniProt Q8TBX8); experiment: DiscoverX KINOMEscan binding assay at 1 μM, PIP4K2C
T3 construct: purchased Eurofins DiscoverX KINOMEscan
T3 sequence (Q8TBX8 1-421): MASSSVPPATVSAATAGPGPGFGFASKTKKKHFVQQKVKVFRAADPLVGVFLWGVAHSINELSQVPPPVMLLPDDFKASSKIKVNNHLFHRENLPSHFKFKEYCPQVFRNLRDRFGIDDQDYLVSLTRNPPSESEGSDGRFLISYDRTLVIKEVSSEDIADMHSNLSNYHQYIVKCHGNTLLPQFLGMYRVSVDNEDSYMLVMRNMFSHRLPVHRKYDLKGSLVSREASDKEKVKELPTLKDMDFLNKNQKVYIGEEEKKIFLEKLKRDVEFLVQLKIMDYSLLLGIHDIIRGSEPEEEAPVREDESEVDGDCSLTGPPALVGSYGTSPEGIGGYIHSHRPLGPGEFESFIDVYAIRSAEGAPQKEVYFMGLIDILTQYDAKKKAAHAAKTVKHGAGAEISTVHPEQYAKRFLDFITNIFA
Procedure: as §1
(§3) In the DiscoverX KinomeSCAN® assay panel, when screened at a concentration of 1 µM, compound 7 bound to very few kinases with S10 (1 µM) = 0.005. The only two kinases with significant binding for compound 7 were PIP4K2C with a PoC = 7.2 and PIM2 with PoC = 7.4. PIP4K2C is a lipid kinase that has very little catalytic activity, and there is no commercially available kinase activity assay, so this potential off-target activity for the negative control remains uncharacterized.

PIM2 = PIM2 (Homo sapiens, UniProt Q9P1W9); experiment: DiscoverX KINOMEscan binding assay at 1 μM, PIM2; design: purchased Eurofins DiscoverX KINOMEscan
Chain of PIM2 (Q9P1W9 whole entry): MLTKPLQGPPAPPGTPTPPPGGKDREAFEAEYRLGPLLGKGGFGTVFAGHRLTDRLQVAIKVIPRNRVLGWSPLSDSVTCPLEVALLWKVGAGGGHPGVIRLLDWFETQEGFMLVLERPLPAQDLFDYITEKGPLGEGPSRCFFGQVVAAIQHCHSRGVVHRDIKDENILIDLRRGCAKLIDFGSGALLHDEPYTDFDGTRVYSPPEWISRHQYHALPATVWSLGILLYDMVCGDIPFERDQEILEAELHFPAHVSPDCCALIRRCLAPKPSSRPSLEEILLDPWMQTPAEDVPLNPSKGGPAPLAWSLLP
Procedure: as §1, §3

[1] = percentage of control, compound at 1 μM, read-out: PoC (1 μM) CAMKK1
[2] = percentage of control, compound at 1 μM, read-out: PoC (1 μM) CAMKK2

T1 sequence (Q8N5S9 whole entry): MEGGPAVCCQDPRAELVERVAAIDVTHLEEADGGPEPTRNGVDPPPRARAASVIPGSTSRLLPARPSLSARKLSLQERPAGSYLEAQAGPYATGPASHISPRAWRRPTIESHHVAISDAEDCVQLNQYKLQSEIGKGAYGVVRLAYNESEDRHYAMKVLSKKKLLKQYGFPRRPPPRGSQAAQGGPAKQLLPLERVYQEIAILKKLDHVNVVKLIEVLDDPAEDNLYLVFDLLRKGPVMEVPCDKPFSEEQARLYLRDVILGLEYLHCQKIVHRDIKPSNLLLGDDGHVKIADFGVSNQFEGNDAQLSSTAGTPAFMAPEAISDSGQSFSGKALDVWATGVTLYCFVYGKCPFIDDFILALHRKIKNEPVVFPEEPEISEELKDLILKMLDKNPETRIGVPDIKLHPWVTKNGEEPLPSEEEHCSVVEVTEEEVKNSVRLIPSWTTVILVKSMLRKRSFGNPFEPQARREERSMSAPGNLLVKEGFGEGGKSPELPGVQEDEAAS

In the case of `Cc1cccc(-c2cnc3occ(-c4ccc(C(=O)O)c(C5CCCC5)c4)c3c2)c1` [Compound 5], the remaining binding at 1 µM (CAMKK1; [1]) is reported as 12%, the remaining binding at 1 µM (MYO3B; percentage of control, compound at 1 μM, read-out: PoC (1 μM) MYO3B) is reported as 45% and the remaining binding at 1 µM (CAMKK2; [2]) is reported as 5.4%.
Work on `O=C(O)c1ccc(-c2coc3ncc(-c4ccccc4)cc23)cc1Cl` [Compound 7] yielded a remaining binding at 1 µM (CAMKK1; [1]) of 91%, a remaining binding at 1 µM (PIP4K2C; percentage of control, compound at 1 μM, read-out: PoC (1 μM) PIP4K2C) of 7.2% and a remaining binding at 1 µM (CAMKK2; [2]) of 84%. For the same molecule, the remaining binding at 1 µM (PIM2; percentage of control, compound at 1 μM, read-out: PoC (1 μM) PIM2) was 7.4%.
Molecule `O=C(O)c1ccc(-c2coc3ncc(-c4ccccc4)cc23)cc1Cl` [SGC-CAMKK2-1N (UNC-YL-83)] has a remaining binding at 1 µM (CAMKK1; CAMKK1, 1000 nM, read-out: Percent Control) of 91%, a remaining binding at 1 µM (MYO3B; Compound Concentration 1000 nM, read-out: Percent Control) of 100% and a remaining binding at 1 µM (PIP4K2C; PIP5K2C (PIP4K2C), 1000 nM, read-out: Percent Control) of 7.2%. It also gave a remaining binding at 1 µM (CAMKK2; CAMKK2, 1000 nM, read-out: Percent Control) of 84% and a remaining binding at 1 µM (PIM2; PIM2, 1000 nM, read-out: Percent Control) of 7.4%.
`Cc1cccc(-c2cnc3occ(-c4ccc(C(=O)O)c(C5CCCC5)c4)c3c2)c1` [SGC-CAMKK2-1 (YL-36)] gave a remaining binding at 1 µM (CAMKK1; 1000 nM, Entrez CAMKK1, read-out: Percent Control) of 15%, a remaining binding at 1 µM (MYO3B; 1000 nM, Entrez MYO3B, read-out: Percent Control) of 100% and a remaining binding at 1 µM (PIP4K2C; 1000 nM, DiscoveRx PIP5K2C, Entrez PIP4K2C, read-out: Percent Control) of 61%. It also gave a remaining binding at 1 µM (CAMKK2; 1000 nM, Entrez CAMKK2, read-out: Percent Control) of 7.5% and a remaining binding at 1 µM (PIM2; 1000 nM, Entrez PIM2, read-out: Percent Control) of 96%.
